Measurements reported in PMC7139656, “The Landscape of the Anti-Kinase Activity of the IDH1 Inhibitors” (Cancers, 2020).

Key:
[1] = test system: mutant IDH1 (2-HG production) in K562 cells; experiment: Mutant IDH1 activity - D-2-hydroxyglutarate production in K562 cells; format: cell-based, human; conditions: 24-h incubation; for D-2-HG level after treatment (decrease to): 30 μM
Protocol: The K562 and U-251 cells were seeded in 3-cm Petri dishes (Nunc) at a density of 0.5 × 10^6 cells/well and incubated at 37 °C for 24 h. […] After a 24-h treatment, the assays were performed using a D-2-Hydroxyglutarate Assay Kit (Abcam) according to the manufacturer’s instructions. Briefly, 25 μL of each cell lysate was transferred onto 96-well plates. Internal and external standards (containing 1 mM D2HG) were also prepared. Then, a freshly prepared reaction mix containing D2HG Assay Buffer, D2HG Enzyme and D2HG Substrate Mix was added to each well. Reaction mixes with the cell lysates were incubated for 60 min at 37 °C in the dark. The optical densities of the samples were analyzed at 450 nm using a Synergy 4 multi-plate reader. The experiments were performed at least four times. The D-2-Hydroxyglutarate concentration is expressed as nM/μL.

wild-type IDH1 = conditions: cited from earlier work
IDH1 R132H = conditions: cited from earlier work
U-251 = experiment: Cytotoxicity / antiproliferative activity, MTS test; format: cell-based; conditions: Homo sapiens, 72-h incubation
Protocol: (§1) M. Rusin from the Maria Sklodowska-Curie Memorial Cancer Centre and Institute of Oncology in Gliwice, Poland. […] G. Kramer-Marek from The Institute of Cancer Research in London, United Kingdom. The pancreatic cell line PANC-1 and the human chronic myelogenous leukemia cell line K562 were purchased from Sigma-Aldrich. […] All of these cell lines were grown under standard conditions at 37 °C in a 5% CO2 humidified atmosphere. Prior to beginning the experiments, all of the cell lines were subjected to routine mycoplasma testing with specific Mycoplasma primers using the PCR technique.
(§2) The exponentially growing cells for all of the cell lines were seeded in 96-well plates (Nunc) at a density of 5000 cells/well and incubated at 37 °C for 24 h. The assay was performed following a 72-h incubation with the various concentrations of the compounds that were being tested. Then, 20 µL of CellTiter 96®AQueous One Solution-MTS (Promega) solution was added to each well (with 100 µL DMEM without phenol red) and incubated for 1 h at 37 °C. The optical densities of the samples were analyzed at 490 nm using a multi-plate reader (Synergy 4, BioTek). The results are expressed as the percentage of the control and were calculated as the inhibitory concentration (IC50) values using GraphPad Prism 7. Each individual compound was tested in triplicate in a single experiment with each experiment being repeated five times.

HCT 116 p53-/- = experiment: as above; format: cell-based; conditions: Homo sapiens, 72-h incubation
Protocol: as §1, §2

PANC-1 = experiment: as above; format: cell-based; conditions: Homo sapiens, 72-h incubation
Protocol: as §1, §2

K562 = experiment: as above; format: cell-based; conditions: Homo sapiens, 72-h incubation
Protocol: as §1, §2

MCF-7 = experiment: as above; format: cell-based; conditions: Homo sapiens, MCF7, 72-h incubation
Protocol: as §1, §2

HCT 116 p53+/+ = experiment: as above; format: cell-based; conditions: Homo sapiens, 72-h incubation
Protocol: as §1, §2

ABL1 enzyme = ABL1 enzyme (Homo sapiens, UniProt P00519); experiment: Pharmacological synergy on the ABL enzyme model (TOS inhibitors and axitinib, ABL1 Kinase Assay, Chou-Talalay); conditions: for Combination index [CI]: combination with axitinib, for Fa = 0.9, CI < 1 synergy, CompuSyn
Protocol: The experiments were performed at least three times. The synergy was calculated according to the Chou-Talay method (CompuSyn software) [33, 70]. Briefly, the concentration range was adjusted to cover the specified IC50 value against the ABL1 enzyme for each inhibitor.

ABL1 native = biological target: T1, ABL1 native (Homo sapiens, UniProt P00519); experiment: Tyrosine kinase inhibition in vitro (Kinase Selectivity TK-2 Profiling System, ADP-Glo); format: biochemical; conditions: for inhibition at 0.5 µM: compound at 0.5 μM, read-out: Inhibitory Effect of the Non-Receptor Tyrosine Kinase Activity, ABL1 native
T1 construct: purchased Promega
Protocol: (§3) The inhibition of the tyrosine kinases by the tested compounds was measured using the Kinase Selectivity TK-2 Profiling Systems (Promega) as was previously reported. Briefly, the kinases (ABL1; BRK; BTK; CSK; Fyn A; Lck; Lyn B; Src) and substrate/co factor strips were prepared according to the manufacturer’s instructions. The compounds being tested were dissolved in DMSO to a concentration of 100 μM, which was then used as the stock solution to prepare the 0.5 μM final concentration in a 1x Kinase Reaction Buffer (40 mM Tris – pH 7.5; 20 mM MgCl2; 0.1 mg/mL BSA; 50 μM DTT). The experiment began with transferring 1 μl of the prepared solutions of the tested compounds onto a 384-well white plate that was designed for luminescence (Corning). Then, 2 μL of the kinases from the eight-well strip were added into each well and the plate was incubated for 10 min at room temperature (RT), after which 2 μL of the substrates from the eight-well substrate/co-factor strip were added to each well and the plate was left at RT for 1 h. Solutions of 1x Kinase Reaction Buffer with 5% vehicle (DMSO) were used as the negative controls without an inhibitor or enzymes. The activity of each kinase was determined using an ADP-Glo Kinase Assay (Promega). Firstly, in order to stop the reaction, 5 μL of ADP-Glo reagent was added to each well and the plate was incubated for 40 min at RT. Afterwards, 10 μL of the Kinase Detection Reagent was added to each well and the luminescence was measured in a Synergy 4 multi-plate reader following a 30-min incubation at RT. […] The data are expressed as the percentage of the inhibition of tyrosine kinase after treatment with the tested compounds.

Lyn B = biological target: T2, Lyn B (Homo sapiens, UniProt P07948); experiment: Tyrosine kinase inhibition in vitro (TK-2 panel, ADP-Glo); format: biochemical; conditions: for inhibition at 0.5 µM: compound at 0.5 μM, read-out: Inhibitory Effect of the Non-Receptor Tyrosine Kinase Activity, Lyn B
T2 construct: purchased Promega
T2 sequence (P07948 1-491 isoform P07948-2): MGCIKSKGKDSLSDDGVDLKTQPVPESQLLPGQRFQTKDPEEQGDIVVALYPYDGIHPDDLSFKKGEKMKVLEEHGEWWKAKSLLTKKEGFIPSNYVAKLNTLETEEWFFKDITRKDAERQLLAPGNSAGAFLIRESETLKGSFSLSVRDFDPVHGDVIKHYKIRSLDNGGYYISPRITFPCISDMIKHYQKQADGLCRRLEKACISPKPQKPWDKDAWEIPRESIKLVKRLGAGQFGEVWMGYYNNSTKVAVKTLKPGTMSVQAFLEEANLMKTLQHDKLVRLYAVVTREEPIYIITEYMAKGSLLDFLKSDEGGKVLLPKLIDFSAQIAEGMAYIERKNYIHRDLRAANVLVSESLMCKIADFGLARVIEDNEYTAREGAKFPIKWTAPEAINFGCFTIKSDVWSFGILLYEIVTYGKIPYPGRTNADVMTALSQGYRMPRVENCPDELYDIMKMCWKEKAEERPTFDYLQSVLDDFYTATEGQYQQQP

ABL1 T315I = biological target: T3, ABL1 T315I (Homo sapiens, UniProt P00519, T315I); experiment: ABL (T315I) Kinase Assay (ADP-Glo); format: biochemical; conditions: for inhibition at 0.5 µM: compound at 0.5 μM, read-out: Inhibitory Effect of the Non-Receptor Tyrosine Kinase Activity, ABL1 T315I
T3 construct: purchased Promega
Protocol: as §3
Briefly, the solutions of the compounds being tested at various concentrations were prepared in a 1x Kinase Reaction Buffer. Firstly, 1 μl of the solutions of the tested compounds or vehicle – 5% DMSO (as the control without an inhibitor) were added onto a 384-well low volume white plate. […] After 10 min of incubation at RT, 2 μL of the substrate/ATP mixture was added to each well and incubated for 1h at RT. The luminescence of the kinase activity after treatment with the tested compounds was measured using an ADP-Glo Kinase Assay as was described above. The experiments were performed three times and the results are presented as the IC50 values, which were calculated using GraphPad Prism 7.

CSK = biological target: T4, CSK (Homo sapiens, UniProt P41240); experiment: Tyrosine kinase inhibition in vitro (TK-2 panel, ADP-Glo); format: biochemical; conditions: compound at 0.5 μM; read-out: Inhibitory Effect of the Non-Receptor Tyrosine Kinase Activity, CSK
T4 construct: purchased Promega
Protocol: as §3

BTK = biological target: T5, BTK (Homo sapiens, UniProt Q06187); experiment: as above; format: biochemical; conditions: for inhibition at 0.5 µM: compound at 0.5 μM, read-out: Inhibitory Effect of the Non-Receptor Tyrosine Kinase Activity, BTK
T5 construct: purchased Promega
T5 sequence (Q06187 whole entry): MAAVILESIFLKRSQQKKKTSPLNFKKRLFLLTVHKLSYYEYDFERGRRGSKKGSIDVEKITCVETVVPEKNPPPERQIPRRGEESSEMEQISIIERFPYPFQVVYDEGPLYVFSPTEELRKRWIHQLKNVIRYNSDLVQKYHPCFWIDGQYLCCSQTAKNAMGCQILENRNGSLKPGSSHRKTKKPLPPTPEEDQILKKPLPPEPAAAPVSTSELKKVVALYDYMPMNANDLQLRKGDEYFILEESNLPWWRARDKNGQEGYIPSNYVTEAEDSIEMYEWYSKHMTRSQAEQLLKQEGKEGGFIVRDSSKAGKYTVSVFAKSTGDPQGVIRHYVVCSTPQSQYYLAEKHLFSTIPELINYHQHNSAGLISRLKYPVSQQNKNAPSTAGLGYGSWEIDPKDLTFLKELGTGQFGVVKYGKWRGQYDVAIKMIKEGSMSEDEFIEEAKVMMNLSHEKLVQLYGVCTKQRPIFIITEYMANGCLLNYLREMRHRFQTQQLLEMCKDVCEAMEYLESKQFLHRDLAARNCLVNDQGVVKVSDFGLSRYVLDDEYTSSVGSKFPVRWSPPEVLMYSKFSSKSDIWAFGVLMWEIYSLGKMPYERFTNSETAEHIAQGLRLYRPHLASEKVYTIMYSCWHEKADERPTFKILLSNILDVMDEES
Protocol: as §3

Lck = biological target: T6, Lck (Homo sapiens, UniProt P06239); experiment: as above; format: biochemical; conditions: compound at 0.5 μM; read-out: Inhibitory Effect of the Non-Receptor Tyrosine Kinase Activity, Lck
T6 construct: purchased Promega
T6 sequence (P06239 whole entry): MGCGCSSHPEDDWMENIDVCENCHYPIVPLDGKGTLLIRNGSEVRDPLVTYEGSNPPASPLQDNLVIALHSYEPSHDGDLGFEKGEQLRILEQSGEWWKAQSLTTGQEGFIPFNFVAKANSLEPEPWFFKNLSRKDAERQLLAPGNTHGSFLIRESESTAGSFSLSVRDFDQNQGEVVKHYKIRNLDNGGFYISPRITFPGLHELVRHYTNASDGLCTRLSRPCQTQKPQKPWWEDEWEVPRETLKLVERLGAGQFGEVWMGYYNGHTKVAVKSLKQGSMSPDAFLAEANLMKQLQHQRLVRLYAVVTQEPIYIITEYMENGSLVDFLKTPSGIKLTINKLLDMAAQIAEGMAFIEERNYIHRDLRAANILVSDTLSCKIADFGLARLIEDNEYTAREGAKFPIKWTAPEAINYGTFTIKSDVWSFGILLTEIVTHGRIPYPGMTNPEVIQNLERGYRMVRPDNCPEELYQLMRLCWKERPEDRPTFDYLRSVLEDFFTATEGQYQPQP
Protocol: as §3

Fyn A = biological target: T7, Fyn A (Homo sapiens, UniProt P06241); experiment: as above; format: biochemical; conditions: for inhibition at 0.5 µM: compound at 0.5 μM, read-out: Inhibitory Effect of the Non-Receptor Tyrosine Kinase Activity, Fyn A
T7 construct: purchased Promega
T7 sequence (P06241 whole entry): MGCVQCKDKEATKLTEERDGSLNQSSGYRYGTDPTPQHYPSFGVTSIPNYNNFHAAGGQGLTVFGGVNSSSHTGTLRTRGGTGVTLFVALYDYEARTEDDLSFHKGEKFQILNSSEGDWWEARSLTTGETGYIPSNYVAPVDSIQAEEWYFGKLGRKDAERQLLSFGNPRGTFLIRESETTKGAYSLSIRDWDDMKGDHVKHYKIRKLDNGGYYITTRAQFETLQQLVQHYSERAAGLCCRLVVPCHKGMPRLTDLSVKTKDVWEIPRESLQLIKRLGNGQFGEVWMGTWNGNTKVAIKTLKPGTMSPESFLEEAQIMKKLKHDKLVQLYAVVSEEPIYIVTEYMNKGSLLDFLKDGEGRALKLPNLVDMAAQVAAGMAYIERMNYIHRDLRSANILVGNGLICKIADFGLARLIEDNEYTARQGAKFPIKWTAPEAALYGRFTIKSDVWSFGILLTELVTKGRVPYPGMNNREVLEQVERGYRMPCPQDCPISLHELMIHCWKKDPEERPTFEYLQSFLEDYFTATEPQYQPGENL
Protocol: as §3

Src = biological target: T8, Src (Homo sapiens, UniProt P12931); experiment: as above; format: biochemical; conditions: compound at 0.5 μM; read-out: Inhibitory Effect of the Non-Receptor Tyrosine Kinase Activity, Src
T8 construct: purchased Promega
T8 sequence (P12931 whole entry): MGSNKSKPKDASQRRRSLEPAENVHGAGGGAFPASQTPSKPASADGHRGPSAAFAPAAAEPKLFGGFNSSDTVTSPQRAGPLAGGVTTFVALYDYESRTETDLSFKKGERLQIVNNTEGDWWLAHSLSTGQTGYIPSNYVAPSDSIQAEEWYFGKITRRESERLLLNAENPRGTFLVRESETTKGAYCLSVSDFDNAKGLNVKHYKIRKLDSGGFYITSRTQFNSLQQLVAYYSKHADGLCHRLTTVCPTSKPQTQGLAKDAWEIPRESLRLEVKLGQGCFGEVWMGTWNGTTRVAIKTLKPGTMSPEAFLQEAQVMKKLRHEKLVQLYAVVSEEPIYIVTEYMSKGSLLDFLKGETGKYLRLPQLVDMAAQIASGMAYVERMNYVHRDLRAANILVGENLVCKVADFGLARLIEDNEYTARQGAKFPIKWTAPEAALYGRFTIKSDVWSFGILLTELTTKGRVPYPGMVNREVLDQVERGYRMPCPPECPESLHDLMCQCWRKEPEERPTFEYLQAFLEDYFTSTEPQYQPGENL
Protocol: as §3

BRK = biological target: T9, BRK (Homo sapiens, UniProt Q13882); experiment: as above; format: biochemical; conditions: compound at 0.5 μM; read-out: Inhibitory Effect of the Non-Receptor Tyrosine Kinase Activity, BRK
T9 construct: purchased Promega
T9 sequence (Q13882 whole entry): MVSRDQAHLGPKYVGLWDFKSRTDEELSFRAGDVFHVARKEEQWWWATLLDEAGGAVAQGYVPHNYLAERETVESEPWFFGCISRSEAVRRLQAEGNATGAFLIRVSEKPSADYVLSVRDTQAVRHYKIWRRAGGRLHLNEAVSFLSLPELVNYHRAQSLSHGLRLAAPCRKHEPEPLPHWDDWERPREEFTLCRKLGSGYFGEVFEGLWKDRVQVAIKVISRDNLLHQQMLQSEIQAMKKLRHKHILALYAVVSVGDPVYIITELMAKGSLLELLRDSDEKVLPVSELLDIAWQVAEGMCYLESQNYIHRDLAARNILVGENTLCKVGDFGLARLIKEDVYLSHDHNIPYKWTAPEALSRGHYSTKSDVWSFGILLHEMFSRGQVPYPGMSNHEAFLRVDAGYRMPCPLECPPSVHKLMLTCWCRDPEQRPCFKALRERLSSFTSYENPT
Protocol: as §3

ABL1 recombinant protein = test system: ABL1 recombinant protein; parameters: method as in PMID 19679652; conditions: cited from earlier work

Combination index [CI] (ABL1 enzyme) | IC50 (ABL1 native) | inhibition at 0.5 µM (ABL1 native) | IC50 (Lyn B) | inhibition at 0.5 µM (Lyn B) | IC50 (ABL1 T315I) | inhibition at 0.5 µM (ABL1 T315I) | inhibition at 0.5 µM (CSK) | IC50 (BTK) | inhibition at 0.5 µM (BTK) | inhibition at 0.5 µM (Lck) | inhibition at 0.5 µM (Fyn A) | inhibition at 0.5 µM (Src) | SMILES | D-2-HG level after treatment (decrease to) [1] | IC50 (U-251) | IC50 (HCT 116 p53-/-) | IC50 (PANC-1) | IC50 (K562) | IC50 (MCF-7) | IC50 (HCT 116 p53+/+) | further results
– | – | – | – | – | – | – | – | – | – | – | – | – | CNC(=O)c1ccccc1Sc1ccc2c(/C=C/c3ccccn3)n[nH]c2c1 [Axitinib, axitinib, reference compound] | – | – | – | – | – | – | – | reduced level of 2-hydroxyglutarate ([1]; axitinib 0.5 μM): 46%
– | – | – | – | – | – | – | – | – | – | – | – | – | N#Cc1ccnc(N2C(=O)CC[C@H]2C(=O)N(c2cncc(F)c2)[C@H](C(=O)NC2CC(F)(F)C2)c2ccccc2Cl)c1 [ivosidenib] | – | – | – | – | – | – | – | IC50 (wild-type IDH1): 0.024 µM; IC50 (IDH1 R132H; read-out: IC50 IDH1 mutant): 0.012 µM
– | – | – | – | – | – | – | – | – | – | – | – | – | C[C@H](O)c1cccc(NC(=O)c2nn(Cc3ccc(F)cc3)c3c2CN(C(=O)c2ccc[nH]2)C[C@H]3C)c1 [GSK-321] | – | – | – | – | – | – | – | inhibitory activity against IDH1 R132H in biochemical tests (IDH1 R132H): 4.6 nM
0.5 | 0.934 µM | 42.8 ± 8.46% | 5 µM | 0% | 5.02 µM | 29.3 ± 7.43% | 38.4 ± 6.15% | 4.94 µM | 32.3 ± 7.43% | 34.7 ± 2.51% | 29.9 ± 4.29% | 0% | CCCCc1ccc(NS(=O)(=O)c2ccc(C)c(C(=O)N3CCN(c4ccccc4O)CC3)c2)cc1 [TOS-1, N-(4-butylphenyl)-3-[4-(2-hydroxyphenyl)piperazine-1-carbonyl]-4-methylbenzene-1-sulfonamide] | 24% | 27.59 ± 0.17 µM | 27.83 ± 0.17 µM | 25.2 ± 3.38 µM | 12.7 ± 3.2 µM | 18.1 ± 1 µM | 24.7 ± 0.32 µM | Fa (fraction affected), combination with axitinib (ABL1 enzyme; TOS-1 0.375 µM + axitinib 0.125 µM): 0.3787; Fa (fraction affected), combination with axitinib (ABL1 enzyme; TOS-1 0.625 µM + axitinib 0.25 µM): 0.4837; Fa (fraction affected), combination with axitinib (ABL1 enzyme; TOS-1 1.25 µM + axitinib 0.5 µM): 0.7204; Fa (fraction affected), combination with axitinib (ABL1 enzyme; TOS-1 2.5 µM + axitinib 1 µM): 0.8412; Fa (fraction affected), single agent (ABL1 enzyme; dose 0.375 µM): 0.1126; Fa (fraction affected), single agent (ABL1 enzyme; dose 0.625 µM): 0.4149; Fa (fraction affected), single agent (ABL1 enzyme; dose 1.25 µM): 0.559; Fa (fraction affected), single agent (ABL1 enzyme; dose 2.5 µM): 0.5863; IC50 (Fyn A): 4.15 µM; inhibition at 0.5 µM (BRK): 22.6 ± 0.94%
– | – | – | – | – | – | – | – | – | – | – | – | – | NC(=O)c1cccc(-c2cc(Nc3ccc(OC(F)(F)F)cc3)ncn2)c1 [GNF-2] | – | – | – | – | – | – | – | level of activity towards recombinant ABL1 protein (ABL1 recombinant protein): ~ 1 μM
0.75 | 0.401 µM | 59.2 ± 8.12% | 5 µM | 0% | > 10 µM | 26.1 ± 6.61% | 9.66 ± 3.59% | 0.522 µM | 50.9 ± 1.87% | 0% | 19.6 ± 2.78% | 13.8 ± 4.23% | CCCCc1ccc(NS(=O)(=O)c2ccc(C)c(C(=O)N3CCN(c4ccccc4OCCF)CC3)c2)cc1 [TOS-2, N-(4-butylphenyl)-3-{4-[2-(2-fluoroethoxy)phenyl]piperazine-1-carbonyl}-4-methylbenzene-1-sulfonamide] | 48% | > 30 µM | 28.9 ± 1.07 µM | 18.9 ± 0.42 µM | 17.3 ± 2.23 µM | 15.6 ± 1.35 µM | 24.4 ± 0.82 µM | Fa (fraction affected), combination with axitinib (ABL1 enzyme; TOS-2 0.0625 µM + axitinib 0.0625 µM): 0.354; Fa (fraction affected), combination with axitinib (ABL1 enzyme; TOS-2 0.125 µM + axitinib 0.125 µM): 0.4632; Fa (fraction affected), combination with axitinib (ABL1 enzyme; TOS-2 0.25 µM + axitinib 0.25 µM): 0.6215; Fa (fraction affected), combination with axitinib (ABL1 enzyme; TOS-2 0.5 µM + axitinib 0.5 µM): 0.6852; Fa (fraction affected), combination with axitinib (ABL1 enzyme; TOS-2 1 µM + axitinib 1 µM): 0.8101; Fa (fraction affected), single agent (ABL1 enzyme; dose 0.0625 µM): 0.07245; Fa (fraction affected), single agent (ABL1 enzyme; dose 0.125 µM): 0.2475; Fa (fraction affected), single agent (ABL1 enzyme; dose 0.25 µM): 0.3737; Fa (fraction affected), single agent (ABL1 enzyme; dose 0.5 µM): 0.518; Fa (fraction affected), single agent (ABL1 enzyme; dose 1 µM): 0.638; inhibition at 0.5 µM (BRK): 0%
